Data from ChEMBL document CHEMBL1127095, “Pharmacology of (2R, 4R, 5S)-2-amino-4,5-(1,2-cyclohexyl)-7-phosphonoheptanoic acid (NPC 17742); a selective, systemically active, competitive NMDA antagonist” (Bioorg Med Chem Lett, 1993).

How the values were obtained:
[1] = test system: Rattus norvegicus; experiment: Tested for the paradigm of drug-discrimination assay in rats by intraperitoneal administration; type: functional; settings: ip
[2] = target: Glutamate NMDA receptor; experiment: Tested for the ability to inhibit the specific binding of [3H]-CGS- 19755 to NMDA recognition sites on rat brain membranes; type: cell membranes, Membrane
[3] = test system: Mus musculus; experiment: Tested for the ability to inhibit the NMDA induced (250mg/Kg, intraperitoneal) seizures in male CF-1 mice when given 30 min prior to NMDA (intraperitoneal); type: functional; settings: ip
[4] = test system: Mus musculus; experiment: Tested for the ability to inhibit the NMDA induced (250mg/Kg, intraperitoneally) seizures in male CF-1 mice given 15 min prior to NMDA (intracerebroventricularly); type: functional
[5] = test system: Rattus norvegicus; experiment: Tested for the paradigm of drug-discrimination assay in rats by intraperitoneal administration.; type: functional; settings: ip
[6] = test system: Rattus norvegicus; experiment: Tested for the paradigm of drug-discrimination assay (NPC 17742 (4 mg/Kg) from saline) in rats by intraperitoneal administration; type: functional; settings: ip
[7] = test system: Rodentia sp.; experiment: Tested for the ability to inhibit the cocaine-induced seizures in rodents; type: functional
[8] = test system: Rattus norvegicus; experiment: Tested for the paradigm of drug-discrimination assay in rat by intraperitoneal administration; type: functional; settings: ip
[9] = organism: Mus musculus; experiment: Tested for the ability to inhibit the maximal electroshock induced seizures in mice; type: functional
[10] = test system: Rattus norvegicus; experiment: Tested for the paradigm of drug-discrimination assay (NPC 17742 (4 mg/Kg; i.p.) from saline) in rat by intraperitoneal administration; type: functional; settings: ip
[11] = test system: Mus musculus; experiment: Tested for the ability to inhibit the […] induced seizures (ip administration); type: functional
[12] = organism: Mus musculus; experiment: Tested for the ability to inhibit the pentylenetetrazole seizures in mice; type: functional
[13] = Tested for the lethal dose by intraperitoneal administration; type: ADME; settings: mouse, ip

IC50 [2] [nM] | SMILES | ED50 [3] [mg/kg] | ED50 [4] [nmol] | other results
87 | O=C(O)[C@@H]1C[C@H](CP(=O)(O)O)CCN1 (single isomer, unassigned) [SELFOTEL] | 2.6 | 0.19 | ED50 [1]: 2.3 mg/kg
28000 | NC(C[C@@H]1CCCC[C@H]1CCP(=O)(O)O)C(=O)O (stereo in doubt; (+)) |  | 49 | 
 | NC(CC1CCCCC1CCP(=O)(O)O)C(=O)O (stereo not given) |  |  | ED50 [5]: 18.1 mg/kg; ED50 [6]: 8.9 mg/kg
190 | O=C(O)C1CN(CCCP(=O)(O)O)CCN1 (racemic) | 2.2 | 1.2 | 
5600 | N[C@H](C[C@@H]1CCCC[C@@H]1CCP(=O)(O)O)C(=O)O | 33 | 8.5 | 
 | CC(=CC(N)C(=O)O)CP(=O)(O)O (stereo not given) [CGP-37849] |  |  | ED50 [7]: 0.1 mg/kg; ED50 [5]: 0.8 mg/kg
2400 | N[C@@H](C[C@@H]1CCCC[C@@H]1CCP(=O)(O)O)C(=O)O | 32 | 8.5 | 
4050 | NC(C[C@@H]1CCCC[C@H]1CCP(=O)(O)O)C(=O)O (stereo in doubt; (-)) | > 100 | 20 | 
2600 | N[C@@H](C[C@H]1CCCC[C@H]1CCP(=O)(O)O)C(=O)O | 40 | 44.6 | 
 | O=C(O)[C@H]1CN(C/C=C/P(=O)(O)O)CCN1 [MIDAFOTEL] |  |  | ED50 [5]: 0.8 mg/kg

SMILES | IC50 [2] [nM] | ED50 [3] [mg/kg] | ED50 [4] [nmol] | other results
N[C@H](C[C@H]1CCCCC1CCP(=O)(O)O)C(=O)O (single isomer, unassigned) | 270 | 1.05 | 0.28 | ED50 [8]: 2.1 mg/kg; ED50 [9]: 13 mg/kg; ED50 [10]: 1.9 mg/kg; ED50 [11]: 4.5 mg/kg; ED50 [12]: 4.5 mg/kg; LD50 [13]: > 1000 mg/kg
